Reference: PMC8071358, “Targeting of the Essential acpP, ftsZ, and rne Genes in Carbapenem-Resistant Acinetobacter baumannii by Antisense PNA Precision Antibacterials” (Biomedicines, 2021)

Tests used:
A. baumannii ATCC 19606 [1] = experiment: BPP-PNA MIC, broth microdilution; format: cell-based, Acinetobacter baumannii; details: 37 °C, 18 h
Outline: (§1)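 Non-cation-adjusted MHB, inoculum ~5 × 10^5 CFU/mL; BPP-PNA 2-fold series prepared at 16–0.5 µM before addition to wells. 37 °C, 18 h, linear shaking, OD 595 nm every 20 min. ≥2 biological × 2 technical replicates.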

CRAB strain AC2 = experiment: BPP-PNA MIC, broth microdilution; format: cell-based, Acinetobacter baumannii; details: 37 °C, 18 h
Outline: as §1

CRAB strain AC44 = experiment: BPP-PNA MIC, broth microdilution; format: cell-based, Acinetobacter baumannii; details: 37 °C, 18 h
Outline: as §1

A. baumannii SSI1104 = experiment: BPP-PNA MIC, broth microdilution; format: cell-based, Acinetobacter baumannii; details: 37 °C, 18 h
Outline: as §1

CRAB strain AC46 = experiment: BPP-PNA MIC, broth microdilution; format: cell-based, Acinetobacter baumannii; details: 37 °C, 18 h
P. aeruginosa (PAO1) = experiment: BPP-PNA MIC, broth microdilution; format: cell-based, Pseudomonas aeruginosa; details: non-target species; MHB without cation (Oxoid)
Experimental: (§2) MIC values were determined by broth microdilution according to standard protocols with a few modifications. An overnight bacterial cell culture was diluted to approximately 5 × 10^5 CFU/mL in non-cation-adjusted Muller Hinton Broth (MHB). Then, 180 µL bacterial solutions were dispensed into a low-bind 96-well plate (Thermo-Scientific, Roskilde, Denmark) along with 20 µL of BPP-PNA compound (BPP-PNA was serially diluted 2-fold from 16 to 0.5 µM in a 96-well plate). The plate was incubated in a Tecan Genios plate reader (GMI, Minnesota, Ramsey, USA) at 37 °C for 18 h with linear shaking, OD was measured every 20 min at 595 nm. […] The minimum bactericidal concentration (MBC) values were determined by plating 10 µL samples from the wells with no visible turbidity onto Mueller–Hinton agar plates. The MBC is determined the lowest concentration of BPP-PNA that reduces the viability of the initial bacterial inoculum by ≥99.9% (3-log reduction in CFU/mL). A minimum of two independent experiments (biological replicates) of the assay were conducted, and two technical replicates were used in each experiment for each bacterium, compound, and concentration.

E. coli K-12 MG1655 = experiment: BPP-PNA MIC, broth microdilution; format: cell-based, Escherichia coli; details: non-target species; MHB without cation (Oxoid)
Experimental: as §2

CRAB strains = experiment: BPP-PNA MIC/MBC summarised over the panel of strains; format: cell-based, Acinetobacter baumannii; details: for bactericidal concentration relative to MIC: CRAB strains; for MIC (complete growth inhibition) over the CRAB strains tested: several A. baumannii strains
Experimental: as §2

A. baumannii ATCC 19606 [2] = experiment: Time-kill assay; format: cell-based, Acinetobacter baumannii; details: ~10^6 CFU/mL, 37 °C, MHB without cation (Sigma)
Experimental: Bacterial cultures were harvested at 0, 90 min, 3 and 6 h. The content of each well was added to 0.9 mL of MHB and centrifuged at 9300× g for 5 min. Supernatants were removed and the cell pellets were suspended in fresh pre-warmed MHB (100 μL). Tenfold serial dilution were prepared, and 10 μL aliquots were plated on Mueller–Hinton agar and incubated overnight at 37 °C to determine the CFU/mL [17].

HepG2 hepatocytes = experiment: HepG2 cell toxicity (CellTiter-Glo, ATP); format: cell-based; details: HepG2, 2–4 µM, ATP level
Experimental: The cell toxicity of selected BPP-PNAs was determined using HepG2 hepatocytes grown in DMEM (low glucose) medium supplemented with 100 U/mL penicillin, 100 µg/mL streptomycin, 1% glutamax, and 10% fetal bovine serum (FBS) (Thermofisher Scientific, Roskilde, Denmark), at 37 °C with 5% CO2. Then, 7000–10,000 cells were seeded in each well of a 96-well plate. After 48 h, the BPP-PNAs were added (six replicates for each concentration), followed by overnight incubation. Total amount of adenosine triphosphate (ATP) was used as a measure of cell viability, according to the CellTiter-Glo luminescent cell viability assay (Promega, Madison, WI, USA) kit. BPP-PNAs concentrations ranged from 2.5 to 20 µM. Potassium dichromate (100 µM) was used as a positive control.

A. baumannii ATCC 19606 [3] = experiment: Envelope disruption, Sytox green uptake; format: cell-based, Acinetobacter baumannii; details: fluorescence over 90 min, 37 °C
Experimental: A culture of A. baumannii ATCC 19606 was grown in MHB (195 rpm at 37 °C), until OD595 = 0.4. Then, bacterial cells were pelleted by centrifugation, washed with 0.9% NaCl, and resuspended in MHB at an OD595 = 0.1. Sytox green dye (Invitrogen) was added to the bacterial culture at a concentration of 2 µM followed by incubation for 5 min at 37 °C, followed by addition of the desired amount of BPP–PNA in a 96-well plate format. Fluorescence intensity (λex = 480 nm, λem = 520 nm) was measured every 5 min for 90 min at 37 °C with continuous shaking.

[4] = Oxoid MHB medium, cation adjusted
[5] = Sigma MHB medium without cation

| Substance | MIC, ATCC 19606 (A. baumannii ATCC 19606 [1]; MHB without cation (Oxoid)) [µM] | MIC, SSI 1104 (A. baumannii SSI1104; MHB without cation (Oxoid)) [µM] | MIC, P. aeruginosa (PAO1) (P. aeruginosa (PAO1)) [µM] | MIC, E. coli K-12 MG1655 (E. coli K-12 MG1655) [µM] | concentration with bactericidal activity against carbapenem-resistant A. baumannii (CRAB strains) [µM] | bactericidal concentration relative to MIC (CRAB strains) | MIC (complete growth inhibition) over the CRAB strains tested (CRAB strains) [µM] | reduction in cell viability at MIC50 concentration (HepG2 hepatocytes) | membrane disruption activity (Sytox uptake) (A. baumannii ATCC 19606 [3]; 8 µM) | membrane disruption activity (Sytox uptake) (A. baumannii ATCC 19606 [3]; 2× MIC concentration (4 µM)) | also measured |
| --- | --- | --- | --- | --- | --- | --- | --- | --- | --- | --- | --- |
| H-(KFF)3K-eg1-TGATTTGCCAC-NH2 (antisense; N-terminal (KFF)3K-eg1 peptide, C-terminal amide, backbone not given here, further chemistry not given here) [PNA 5639, anti-acpP peptide-PNA conjugate, match, +1 to +11] | 2 | 2 | >16 | >16 | 4 | 1–2 × MIC | 1 to 2 | no reduction in viability | only a minimal effect | no indication of membrane disruption activity | MIC, ATCC 19606 (A. baumannii ATCC 19606 [1]; [4]): 4 µM; MIC, ATCC 19606 (A. baumannii ATCC 19606 [1]; Sigma MHB medium without cation, ~5 × 10^5 CFU/mL, OD595 < 0.1): 2 µM; MIC, AC2 (CRAB strain AC2; [4]): 4 µM; MIC, AC2 (CRAB strain AC2; [5]): 1 to 2 µM; MIC, AC44 (CRAB strain AC44; [4]): 4 µM; MIC, AC44 (CRAB strain AC44; [5]): 1 µM; MIC, SSI 1104 (A. baumannii SSI1104; [4]): 4 µM; MIC, SSI 1104 (A. baumannii SSI1104; [5]): 2 µM; MIC, AC46 (CRAB strain AC46; [4]): 4 µM; MIC, AC46 (CRAB strain AC46; [5]): 1 µM; decrease of potency in cation adjusted MHB (CRAB strains; cation adjusted MHB against MHB without cation): 1–4 fold; CFU reduction in time-kill (A. baumannii ATCC 19606 [2]; 4 or 8 μM, after 3 h treatment): 4 log |
| H-(KFF)3K-eg1-GAGGCCATGAC-NH2 (antisense; N-terminal (KFF)3K-eg1 peptide, C-terminal amide, backbone not given here, further chemistry not given here) [PNA 5612, anti-ftsZ peptide-PNA conjugate, match, −3 to +8] | 4 | 4 | >16 | >16 | 4 | 1–2 × MIC | 2 to 8 | no reduction in viability | only a minimal effect | no indication of membrane disruption activity | MIC, AC2 (CRAB strain AC2; MHB without cation (Oxoid)): 2 µM; MIC, AC44 (CRAB strain AC44; MHB without cation (Oxoid)): 8 µM; MIC, AC46 (CRAB strain AC46; MHB without cation (Oxoid)): 8 µM; MIC range against 12 multidrug resistant clinical isolates (CRAB strains; 12 CRAB clinical isolates (Table 3)): 2 to 8 µM; match/mismatch ratio of MIC (CRAB strains; 12 multidrug resistant clinical isolates, 5612 vs 5615): 2–8 fold; MIC50 (CRAB strains; over the CRAB and ATCC 19606 strains of Table 3, MHB without cation (Oxoid)): 4 µM; MIC of match PNA lower than mismatch control (mismatch discrimination) (CRAB strains; strains of Table 2 (5612 vs 5615) or Table 4 (5656 vs 5822)): 2–4 fold; CFU reduction in time-kill (A. baumannii ATCC 19606 [2]; 4 μM, after 3 h): more than three order of magnitude CFU reduction |
